Assay: Open-circulating cooling water system, change over time in combined and free chlorine (Example 4 / Comparative Example 1)
Assay type: physicochemical
Details: for Combined chlorine: total residual chlorine minus free chlorine (DPD)
From the text: In this open-circulating cooling water system, cooling water is supplied from a cooling tower 1 to a heat exchanger 3 via a cooling water pipe 2 and a pump P, and is returned to the cooling tower 1 via a cooling water pipe 4. The cooling tower 1 (refrigeration capacity: 400 RT, water storage capacity: 30 m^3) was operated at a concentration factor of 5. The cooling tower 1 has a fan F and contains therein air-conditioning cooling water W. The free chlorine concentration of the air-conditioning cooling water W is measured by means of a sensor S and controlled by means of a free chlorine control section 5 and a combined chlorine control section 6. The free chlorine control section 5 includes a chemical tank 51 and a chemical feed inlet 52. Combined chlorine control section 6 includes a chemical tank 61 and a chemical feed inlet 62. The amount of free chlorine or combined chlorine is controlled on the basis of the free chlorine concentration as measured by means of the sensor S employing an ORP electrode.
The amount of free chlorine was controlled through addition of a hypochlorite salt. Chlorosulfamic acid was employed as combined chlorine.
In the water system, chlorosulfamic acid was added so that the chlorine concentration was adjusted to 15 mg-Cl/L with respect to blowing down the cooling water. In the water system, the amount of the hypochlorite salt added was controlled by means of the sensor S so that free chlorine concentration was 0.5 mg-Cl/L. Combined chlorine concentration was measured through the DPD method (determined by use of the following relation: combined chlorine concentration=total residual chlorine concentration−free chlorine concentration).
Flaked slime was non-forcedly discharged through blowing down at an intensity according to the concentration factor, and a forced removal of the slime (e.g., cleaning) was not carried out. Thus, the water system was continuously operated, and change over time in combined chlorine concentration and free chlorine concentration in the water system was observed.
The water system was continuously operated under the same conditions as in Example 4 (i.e., chlorosulfamic acid was added so that the chlorine concentration was adjusted to 15 mg-Cl/L with respect to blowing down the cooling water), except that free chlorine concentration was not controlled.

## O=S(=O)(O)NCl [Comparative Example 1, Chlorosulfamic acid]
Operation period up to 20 days
  Combined chlorine concentration, level over the operation period: maintained at low level
Period 1 days
  Free chlorine: 0.0 mg/L
  Combined chlorine: 3 mg/L
Period 2 days
  Free chlorine: 0.0 mg/L
  Combined chlorine: 4 mg/L
Period 8 days
  Free chlorine: 0.1 mg/L
  Combined chlorine: 3 mg/L
Period 14 days
  Free chlorine: 0.0 mg/L
  Combined chlorine: 2 mg/L
Period 20 days
  Free chlorine: 0.1 mg/L
  Combined chlorine: 4 mg/L
